Experimental data as given in US20120046276A1, “Tuberculosis treatment using pleuromutilin derivatives” (priority 2002, published 2012).

Tests used:
Assay type in all cases: cell-based
[1] = test system: Mycobacterium tuberculosis strain 8; assay: Agar Dilution Test (MIC), strain 8 (Isoniacid S, Rifampicin R, Streptomycin S); conditions: TABLE A; strain 8; MIC determined after 3, 4 and 5 weeks
[2] = test system: Mycobacterium tuberculosis strain 5; assay: Agar Dilution Test (MIC), strain 5 (Isoniacid R, Rifampicin R, Streptomycin S); conditions: TABLE A; strain 5; MIC determined after 3, 4 and 5 weeks
[3] = test system: Mycobacterium tuberculosis strain 7; assay: Agar Dilution Test (MIC), strain 7 (Isoniacid R, Rifampicin S, Streptomycin R); conditions: TABLE A; strain 7; MIC determined after 3, 4 and 5 weeks
[4] = test system: Mycobacterium tuberculosis strain 9; assay: Agar Dilution Test (MIC), strain 9 (Isoniacid R, Rifampicin S, Streptomycin R); conditions: TABLE A, MIC determined after 3, 4 and 5 weeks
[5] = test system: Mycobacterium tuberculosis strain 12; assay: Agar Dilution Test (MIC), strain 12 (Isoniacid S, Rifampicin S, Streptomycin S); conditions: TABLE A; strain 12; MIC determined after 3, 4 and 5 weeks
[6] = test system: Mycobacterium tuberculosis strain 3; assay: Agar Dilution Test (MIC), strain 3 (Isoniacid R, Rifampicin R, Streptomycin S); conditions: TABLE A; strain 3; MIC determined after 3, 4 and 5 weeks
[7] = test system: Mycobacterium tuberculosis strain 10; assay: Agar Dilution Test (MIC), strain 10 (Isoniacid S, Rifampicin S, Streptomycin S); conditions: TABLE A; strain 10; MIC determined after 3, 4 and 5 weeks
[8] = test system: Mycobacterium tuberculosis strain 6; assay: Agar Dilution Test (MIC), strain 6 (Isoniacid S, Rifampicin S, Streptomycin S); conditions: TABLE A; strain 6; MIC determined after 3, 4 and 5 weeks
[9] = test system: Mycobacterium tuberculosis strain 14; assay: Agar Dilution Test (MIC), strain 14 (Isoniacid S, Rifampicin S, Streptomycin S); conditions: TABLE A; strain 14; MIC determined after 3, 4 and 5 weeks
[10] = test system: Mycobacterium tuberculosis strain 11; assay: Agar Dilution Test (MIC), strain 11 (Isoniacid S, Rifampicin S, Streptomycin S); conditions: TABLE A; strain 11; MIC determined after 3, 4 and 5 weeks
[11] = test system: Mycobacterium tuberculosis strain 13; assay: Agar Dilution Test (MIC), strain 13 (Isoniacid S, Rifampicin S, Streptomycin S); conditions: TABLE A; strain 13; MIC determined after 3, 4 and 5 weeks
[12] = test system: Mycobacterium tuberculosis strain 2; assay: Agar Dilution Test (MIC), strain 2 (Isoniacid S, Rifampicin S, Streptomycin S); conditions: TABLE A; strain 2; MIC determined after 3, 4 and 5 weeks
[13] = test system: Mycobacterium tuberculosis strain 15 (labor strain 137 kV); assay: Agar Dilution Test (MIC), strain 15 = labor strain 137 kV (Isoniacid S, Rifampicin S, Streptomycin S); conditions: TABLE A; strain 15; MIC determined after 3, 4 and 5 weeks
[14] = test system: Mycobacterium tuberculosis strain 1; assay: Agar Dilution Test (MIC), strain 1 (Isoniacid S, Rifampicin S, Streptomycin S); conditions: TABLE A; strain 1; MIC determined after 3, 4 and 5 weeks
[15] = test system: Mycobacterium tuberculosis strain 4; assay: Agar Dilution Test (MIC), strain 4 (Isoniacid R, Rifampicin R, Streptomycin R); conditions: TABLE A; strain 4; MIC determined after 3, 4 and 5 weeks

NNC(=O)c1ccncc1 [Isoniacid]
sensible (S) or resistant (R) [1]: S (sensible (S)) | sensible (S) or resistant (R) [2]: R (A strain is designated as resistant if its MIC in testing according to the General Test Procedure after 3 to 5 weeks is higher than 20 μg/ml) | sensible (S) or resistant (R) [3]: R (A strain is designated as resistant if its MIC in testing according to the General Test Procedure after 3 to 5 weeks is higher than 20 μg/ml) | sensible (S) or resistant (R) [4]: R (A strain is designated as resistant if its MIC in testing according to the General Test Procedure after 3 to 5 weeks is higher than 20 μg/ml) | sensible (S) or resistant (R) [5]: S (sensible (S)) | sensible (S) or resistant (R) [6]: R (A strain is designated as resistant if its MIC in testing according to the General Test Procedure after 3 to 5 weeks is higher than 20 μg/ml) | sensible (S) or resistant (R) [7]: S (sensible (S)) | sensible (S) or resistant (R) [8]: S (sensible (S)) | sensible (S) or resistant (R) [9]: S (sensible (S)) | sensible (S) or resistant (R) [10]: S (sensible (S)) | sensible (S) or resistant (R) [11]: S (sensible (S)) | sensible (S) or resistant (R) [12]: S (sensible (S)) | sensible (S) or resistant (R) [13]: S (sensible (S)) | sensible (S) or resistant (R) [14]: S (sensible (S)) | sensible (S) or resistant (R) [15]: R (A strain is designated as resistant if its MIC in testing according to the General Test Procedure after 3 to 5 weeks is higher than 20 μg/ml)

CO[C@H]1/C=C/O[C@@]2(C)Oc3c(C)c(O)c4c(O)c(c(/C=N/N5CCN(C)CC5)c(O)c4c3C2=O)NC(=O)/C(C)=C\C=C\[C@H](C)[C@H](O)[C@@H](C)[C@@H](O)[C@@H](C)[C@H](OC(C)=O)[C@@H]1C [Rifampicin]
sensible (S) or resistant (R) [1]: R (A strain is designated as resistant if its MIC in testing according to the General Test Procedure after 3 to 5 weeks is higher than 20 μg/ml) | sensible (S) or resistant (R) [2]: R (A strain is designated as resistant if its MIC in testing according to the General Test Procedure after 3 to 5 weeks is higher than 20 μg/ml) | sensible (S) or resistant (R) [3]: S (sensible (S)) | sensible (S) or resistant (R) [4]: S (sensible (S)) | sensible (S) or resistant (R) [5]: S (sensible (S)) | sensible (S) or resistant (R) [6]: R (A strain is designated as resistant if its MIC in testing according to the General Test Procedure after 3 to 5 weeks is higher than 20 μg/ml) | sensible (S) or resistant (R) [7]: S (sensible (S)) | sensible (S) or resistant (R) [8]: S (sensible (S)) | sensible (S) or resistant (R) [9]: S (sensible (S)) | sensible (S) or resistant (R) [10]: S (sensible (S)) | sensible (S) or resistant (R) [11]: S (sensible (S)) | sensible (S) or resistant (R) [12]: S (sensible (S)) | sensible (S) or resistant (R) [13]: S (sensible (S)) | sensible (S) or resistant (R) [14]: S (sensible (S)) | sensible (S) or resistant (R) [15]: R (A strain is designated as resistant if its MIC in testing according to the General Test Procedure after 3 to 5 weeks is higher than 20 μg/ml)

[H]/N=C(/N)N[C@H]1[C@H](O)[C@@H](O)[C@H](O[C@@H]2O[C@@H](C)[C@](O)(C=O)[C@H]2O[C@@H]2O[C@@H](CO)[C@H](O)[C@@H](O)[C@@H]2NC)[C@@H](N/C(N)=N\[H])[C@@H]1O [Streptomycin]
sensible (S) or resistant (R) [1]: S (sensible (S)) | sensible (S) or resistant (R) [2]: S (sensible (S)) | sensible (S) or resistant (R) [3]: R (A strain is designated as resistant if its MIC in testing according to the General Test Procedure after 3 to 5 weeks is higher than 20 μg/ml) | sensible (S) or resistant (R) [4]: R (A strain is designated as resistant if its MIC in testing according to the General Test Procedure after 3 to 5 weeks is higher than 20 μg/ml) | sensible (S) or resistant (R) [5]: S (sensible (S)) | sensible (S) or resistant (R) [6]: S (sensible (S)) | sensible (S) or resistant (R) [7]: S (sensible (S)) | sensible (S) or resistant (R) [8]: S (sensible (S)) | sensible (S) or resistant (R) [9]: S (sensible (S)) | sensible (S) or resistant (R) [10]: S (sensible (S)) | sensible (S) or resistant (R) [11]: S (sensible (S)) | sensible (S) or resistant (R) [12]: S (sensible (S)) | sensible (S) or resistant (R) [13]: S (sensible (S)) | sensible (S) or resistant (R) [14]: S (sensible (S)) | sensible (S) or resistant (R) [15]: R (A strain is designated as resistant if its MIC in testing according to the General Test Procedure after 3 to 5 weeks is higher than 20 μg/ml)
